Results taken from patent publication US6815450B2, “Axon regeneration with PKC inhibitors” (Children's Medical Center Corporation, priority 2002, dated 2004).
Where a name gives a salt, the structure may show the parent alone. Residues, ends and D or L forms follow the SMILES beside them. *: point of attachment. Cbz = O=C(OCc1ccccc1)*; CH2F = FC*

Tests used:
protein kinase C = details: cited from earlier work
[1] = test system: NG108 cells and CGNs transfected with Akt forms; experiment: neurite outgrowth of Akt-transfected cells; format: cell-based, rat; parameters: effect on pro-growth effect of dominant negative Akt / cell survival / process extension of constitutively active Akt expressing NG108 cells: unit of the concentration uncertain
Excerpt: Having determined that the PI3K pathway is both activated and required in MAG signaling, we next examined whether Akt, a major downstream effector of PI3K in promoting cell survival (13, 17) and in determining the directionality of cell movement during chemotaxis (18), could account for the neurite inhibitory effect of MAG. To this end, we transfected NG108 cells with three versions of the Akt product—a constitutive active, a dominant negative and a wild type form (19), and compared their effects on neurite outgrowth.
Since Akt has been thought of as a positive regulator of neurite outgrowth (21), our results with over-expression of constitutively active Akt came as a surprise. […] However, expression of dominant negative Akt led to the death of the transfected CGNs, consistent with a critical role of Akt in promoting cell survival (13, 17 and 19). Thus, the neurite outgrowth response elicited by Akt activation differs in a cell type specific manner.
Growth cone responses can be converted from attraction to repulsion and vice versa through the modification of cellular cyclic nucleotide levels (12, 16, 23). […] As the PLCg pathway is activated by MAG and PKC is a major effector of PLCg (15), we assessed whether changes in PKC activity could affect the activity of different forms of Akt in NG-108 cells on the PDL substrate.

[2] = test system: CGNs, DRG sensory neurons or NG108 cells on immobilized CNS myelin; experiment: neurite outgrowth assay on CNS myelin substrate; format: cell-based, rat; details: for neurite outgrowth on immobilized CNS myelin: P7-9 rat CGNs and DRG sensory neurons
Method: (§1) To assess the functional relevance of the activation of the PI3K, MEK and PLC-g pathways, we utilized a standard neurite outgrowth assay in which NG108 cells or cerebellar granule neurons (CGN) from postnatal day 7-9 (P7-9) rats were grown on immobilized recombinant MAG or myelin (5-10, 16). Pharmacological inhibitors of the individual pathways—LY294002 and wortmannin for PI3K, U0126 for MEK, and U73122 for PLC-g, were then added to assess whether and to what extent these inhibitors could overcome the inhibitory activity of MAG or of myelin. […] As MEK has been previously shown to be required for axon growth induced by chronic exposure to neurotrophins (14), but not for growth cone turning in acute responses to NGF gradients (12), our results of abolishing MAG inhibition by an MEK inhibitor imply that the MEK pathway can be required only for neurite outgrowth in response to external cues.
Based on the modulation of neurite outgrowth by modulating PKC activity, we predicted that inhibiting PKC activity might abolish or convert the inhibitory responses of neurons to MAG and other myelin-associated inhibitors. […] Based on existing evidence for the functional interactions between the PKA and PKC pathways (24), we conclude that both PKA and PKC act through parallel mechanisms in affecting neurite outgrowth. Although many PKC isoforms are expressed in the nervous system (25), our observations with phorbol ester and selective PKC inhibitors indicate the involvement of at least classical PKC isoforms whose activation is dependent on diacylglycerol (DAG) and calcium (24).
Screening for compounds that allow neurite outgrowth from postnatal day 7-9 rat cerebellar granule neurons (CGNs) on CNS myelin substrates, we identified several broad-specificity PKC inhibitors from a small molecule libraries. Based on their structure and substrate requirements, PKC isoforms can be divided into three classes: the Ca++ and second messenger diacylglycerol (DAG)-sensitive conventional PKCs (-α, -β, and -γ), the Ca++-independent but DAG-dependent novel PKCs (-δ, -ε, -η, -θ, and -μ), and the Ca++- and DAG-insensitive atypical PKCs (-ζ and -λ). We first examined PKC inhibitors with a higher specificity for the conventional class of PKC isotypes for their ability to promote neurite outgrowth on CNS myelin. These inhibitors included Chelerythrine, Calphostin, Bisindoleylmaleimide I, and Gö6976. Dose response experiments (in the range of 10 nM to 10 uM) were carried out for each PKC inhibitor.

[3] = test system: NG108 cells or cerebellar granule neurons (CGN) on immobilized recombinant MAG; experiment: neurite outgrowth assay on immobilized recombinant MAG; format: cell-based, rat
Method: as §1

NG108 cells and CGNs = experiment: toxicity to cultured neuronal cells; format: cell-based, rat; details: even at 100 nM
Method: as §1

[4] = test system: CGNs, DRG sensory neurons or NG108 cells on immobilized CNS myelin; details: previously shown; cited from earlier work
[5] = test system: neurons on CSPG substrate; experiment: neurite outgrowth on CSPG substrate; format: cell-based, rat
Excerpt: We examined whether PKC is involved in the inhibitory activity of CSPG, the other major inhibitory activity associated with glial scars in the adult CNS.

[6] = test system: CGNs on MAG, Nogo-A and OMgp; experiment: neurite outgrowth on individual myelin inhibitors; format: cell-based, rat
Method: […] Based on their structure and substrate requirements, PKC isoforms can be divided into three classes: the Ca++ and second messenger diacylglycerol (DAG)-sensitive conventional PKCs (-α, -β, and -γ), the Ca++-independent but DAG-dependent novel PKCs (-δ, -ε, -η, -θ, and -μ), and the Ca++- and DAG-insensitive atypical PKCs (-ζ and -λ). […] These inhibitors included Chelerythrine, Calphostin, Bisindoleylmaleimide I, and Gö6976. Dose response experiments (in the range of 10 nM to 10 uM) were carried out for each PKC inhibitor.

[7] = NG-108 cells, 10 (unit uncertain)

## CC1CNCCN1S(=O)(=O)c1cccc2cnccc12 (racemic) [compound 542, (+−)-1-(5-Isoquinolinesulfonyl)-2-methylpiperazine dihydrochloride]
Protein kinase C
  IC50: 6 µM

## CCCCCCCCCCCCCC(=O)O[C@@H]1[C@@H](C)[C@@]2(O)[C@@H](C=C(CO)C[C@]3(O)C(=O)C(C)=C[C@@H]23)[C@@H]2C(C)(C)[C@]12OC(C)=O [PMA, phorbol myristate-13-acetate]
[1]
  neurite outgrowth from untransfected cells and wild type Akt transfected cells: did not result in significant alterations in neurite outgrowth
[1]; CGNs
  neurite outgrowth promoting activity of active Akt in CGNs: abolished the neurite outgrowth promoting activity of active Akt
[1]; PDL substrate, 100 nM
  neurite outgrowth from NG108 cells expressing dominant negative Akt: resulted in inhibition of neurite outgrowth

## Nc1nc2c(nc(Br)n2[C@@H]2O[C@@H]3COP(O)(=S)O[C@H]3[C@H]2O)c(=O)[nH]1 (some centres unmarked) [Rp-8-Br-cGMPS]
[2]; P7-9 rat CGNs
  neurite outgrowth on CNS myelin substrate: failed to overcome the inhibitory effects of CNS myelin

## N#CC(=C(/N)Sc1ccccc1N)/C(C#N)=C(\N)Sc1ccccc1N [U0126]
[3]
  neurite outgrowth on the MAG substrate: promoted neurite outgrowth

## COc1ccc2c(c1)CC[C@@H]1[C@@H]2CC[C@]2(C)[C@@H](NCCCCCCN3C(=O)C=CC3=O)CC[C@@H]12 [U73122]
NG108 cells and CGNs
  toxicity to cells: appeared toxic

## C[C@@H](N)[C@H]1CC[C@H](C(=O)Nc2ccncc2)CC1 [Y-27632]
[4]
  block of the inhibitory activity of CNS myelin and its components: block the inhibitory activity of CNS myelin and its components
[5]
  effect on CSPG substrate relative to chondroitinase ABC: stronger effects than chondroitinase ABC
  neurite outgrowth from neurons on CSPG substrate: allowed the cultured neurons to overcome the inhibitory activity of CSPG

## CC(NC(=O)C(NC(=O)OCc1ccccc1)C(C)C)C(=O)NC(CC(=O)O)C(=O)CF (stereo not drawn) [ZVAD] (Cbz-Val-Ala-Asp-CH2F; configuration not given here)
[1]; [7]
  cell survival: enhancing cell survival
  effect on pro-growth effect of dominant negative Akt: did not affect the pro-growth effect of the dominant negative form of Akt

## O=S(=O)(c1cccc2cnccc12)N1CCNCC1 [compound 543, 1-(5-Isoquinolinesulfonyl)piperazine]
Protein kinase C
  IC50: 6 µM

## Nc1ncnc2c1ncn2[C@@H]1O[C@@H]2COP(O)(=S)O[C@H]2[C@H]1O (some centres unmarked) [sp-cAMP]
[2]
  neurite outgrowth on immobilized CNS myelin: stimulated neurite outgrowth

## bisindolylmaleimide [GFX]
[2]
  neurite outgrowth on immobilized CNS myelin: profoundly affected neurite outgrowth by enhancing both the number of neurite-bearing cells and the length of neurites
[1]
  neurite outgrowth from untransfected cells and wild type Akt transfected cells: did not result in significant alterations in neurite outgrowth
[1]; PDL substrate, 5 (unit uncertain)
  process extension of constitutively active Akt expressing NG108 cells: the majority of constitutively active Akt expressing NG108 cells extended processes

## calphostin C
[6]
  neurite outgrowth inhibition induced by MAG, Nogo-A and OMgp: efficiently overcame neurite outgrowth inhibition
[2]
  neurite outgrowth on immobilized CNS myelin: profoundly affected neurite outgrowth by enhancing both the number of neurite-bearing cells and the length of neurites
[2]; P7-9 rat CGNs, 100 nM
  neurite outgrowth on a CNS myelin substrate: profoundly mitigated outgrowth inhibition and promoted significant neurite outgrowth
